One test deals with INS1. In words: INS-1E survival protection against cytokine death – cell-based, luminescence, retest, dose response (AID 449756).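 Note: cell death triggered by IL-1 beta plus TNF-alpha plus IFN-gamma mixture; protective hits raise ATP signal compared with cytokine alone wells.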 It counts as functional. The following applies: Rattus norvegicus.
Test [1] can be described thus: Trypanosoma cruzi growth suppression in host cells – NIH3T3 host cells, beta-gal luminescence, confirmation (AID 2044).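 Note: intracellular parasites grown in NIH/3T3 mouse fibroblasts as host cells; luminescent beta-galactosidase reporter signal from transgenic T. cruzi replicating inside host cells; inhibitors lower the luminescence signal.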 It counts as functional, cell-based.
The subject of the next test is HeLa. The test can be described thus: viability loss in HeLa cells – cell-based, ATP luminescence, cherry-pick samples, cytotoxicity control, dose response (AID 687004). In kind it is functional. To be noted: Homo sapiens.
The next test concerns the target T1, Protein skinhead-1 (Caenorhabditis elegans, UniProt P34707).
T1 sequence (P34707 whole entry): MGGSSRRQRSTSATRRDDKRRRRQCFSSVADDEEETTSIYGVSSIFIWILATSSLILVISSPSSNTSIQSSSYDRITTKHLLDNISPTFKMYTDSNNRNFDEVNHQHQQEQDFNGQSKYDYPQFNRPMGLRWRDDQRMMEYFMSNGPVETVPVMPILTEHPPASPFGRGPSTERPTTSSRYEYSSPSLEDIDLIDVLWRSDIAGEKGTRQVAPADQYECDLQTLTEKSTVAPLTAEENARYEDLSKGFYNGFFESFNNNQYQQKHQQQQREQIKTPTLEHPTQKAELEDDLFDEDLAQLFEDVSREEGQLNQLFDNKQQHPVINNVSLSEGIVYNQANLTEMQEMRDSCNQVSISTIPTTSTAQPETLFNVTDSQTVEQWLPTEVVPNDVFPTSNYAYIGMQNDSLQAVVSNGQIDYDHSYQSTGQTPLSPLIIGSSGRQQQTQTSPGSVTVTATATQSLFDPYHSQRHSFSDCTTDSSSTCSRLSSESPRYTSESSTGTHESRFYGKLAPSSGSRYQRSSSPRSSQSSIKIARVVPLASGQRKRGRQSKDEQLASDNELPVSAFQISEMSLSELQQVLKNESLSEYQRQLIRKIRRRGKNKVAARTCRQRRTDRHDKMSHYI
In kind it is functional.

A short description of test [2]: alpha-synuclein stem-loop luciferase translation blockers – H4 neuroglioma cells, luminescence, confirmation (AID 1988). It counts as functional, cell-based.
For a further test, the target named is T2, Bcl-2-related protein A1 (Mus musculus, UniProt Q07440).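 Note: confirmatory dose–response counterscreen on Bfl-1, used to check hits from a UBC13 polyubiquitin inhibitor campaign.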
T2 sequence (Q07440 whole entry): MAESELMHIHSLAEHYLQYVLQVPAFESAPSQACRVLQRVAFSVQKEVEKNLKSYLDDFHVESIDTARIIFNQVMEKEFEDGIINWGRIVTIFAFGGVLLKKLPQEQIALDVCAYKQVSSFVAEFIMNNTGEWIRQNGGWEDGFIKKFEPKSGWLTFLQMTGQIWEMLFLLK
In kind it is functional.

The target of a further test is Large T antigen (Simian virus 40, UniProt P03070). In kind it is functional, Betapolyomavirus macacae.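 Note: Confirmatory-stage PubChem screen for compounds that inhibit SV40 T antigen.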
A further test addresses Genome polyprotein (dengue virus type 2, UniProt P29990). In words: flavivirus cap methylation enzyme inhibition – biochemical, confirmation dose response, primary screen (AID 588689). In kind it is functional.
Test [3] can be described thus: viability loss in THP-1 monocytes – THP-1 cells, cytotoxicity control for Vif-APOBEC3G degradation inhibitor project, dose response (AID 1117359). It counts as functional. The following applies: THP-1.
Test [4] is described as follows: Counterscreen for AddAB inhibitors: absorbance-based bacterial cell-based high throughput dose response assay for inhibitors of bacterial viability. [Related pubchem assays (depositor defined):AID435030, AID449728, AID449731, AID488942, AID488955, AID488956]. It counts as functional. (The purpose of a counterscreen is to sort out artefacts and off-target activity.)

The nature of test [5]: fluconazole-exposed Candida albicans growth modulators – fluorescence, retest, confirmation (AID 2467). It counts as functional, cell-based.
The nature of test [6]: NIH-3T3 fibroblast cytotoxicity, dose response, cytotoxicity control, cell-based, fluorescence, Alamar Blue, secondary assay (AID 2327).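 Note: NIH-3T3 mouse fibroblasts cultured with fluconazole at 8 µg/mL.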 In kind it is functional. (In general: Resazurin is reduced to fluorescent resorufin, in cell work by metabolically active cells.)
The target of test [7] is Induced myeloid leukemia cell differentiation protein Mcl-1 (Homo sapiens, UniProt Q07820). It counts as functional.
The target in test [8] is Photoreceptor-specific nuclear receptor (Homo sapiens, UniProt Q9Y5X4). In kind it is functional.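 Note: potency for compounds that break the NR2E3 corepressor complex and count as activators.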
Test [9] concerns the target T3, Sentrin-specific protease 8 (Homo sapiens, UniProt Q96LD8).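 Note: luminescence read-out of SENP8 inhibition, dose-response confirmation following an ultra-high-throughput screen.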
T3 sequence (Q96LD8 whole entry): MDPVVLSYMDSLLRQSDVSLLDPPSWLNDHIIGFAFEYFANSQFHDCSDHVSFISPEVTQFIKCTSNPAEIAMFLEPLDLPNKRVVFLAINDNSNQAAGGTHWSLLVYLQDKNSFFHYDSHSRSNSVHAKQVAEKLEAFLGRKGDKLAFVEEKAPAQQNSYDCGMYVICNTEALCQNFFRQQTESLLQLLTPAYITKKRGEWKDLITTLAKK
It counts as functional.

Another test addresses T4, Aminopeptidase N (Plasmodium falciparum FcB1/Columbia, UniProt O96935).
T4 sequence (O96935 whole entry): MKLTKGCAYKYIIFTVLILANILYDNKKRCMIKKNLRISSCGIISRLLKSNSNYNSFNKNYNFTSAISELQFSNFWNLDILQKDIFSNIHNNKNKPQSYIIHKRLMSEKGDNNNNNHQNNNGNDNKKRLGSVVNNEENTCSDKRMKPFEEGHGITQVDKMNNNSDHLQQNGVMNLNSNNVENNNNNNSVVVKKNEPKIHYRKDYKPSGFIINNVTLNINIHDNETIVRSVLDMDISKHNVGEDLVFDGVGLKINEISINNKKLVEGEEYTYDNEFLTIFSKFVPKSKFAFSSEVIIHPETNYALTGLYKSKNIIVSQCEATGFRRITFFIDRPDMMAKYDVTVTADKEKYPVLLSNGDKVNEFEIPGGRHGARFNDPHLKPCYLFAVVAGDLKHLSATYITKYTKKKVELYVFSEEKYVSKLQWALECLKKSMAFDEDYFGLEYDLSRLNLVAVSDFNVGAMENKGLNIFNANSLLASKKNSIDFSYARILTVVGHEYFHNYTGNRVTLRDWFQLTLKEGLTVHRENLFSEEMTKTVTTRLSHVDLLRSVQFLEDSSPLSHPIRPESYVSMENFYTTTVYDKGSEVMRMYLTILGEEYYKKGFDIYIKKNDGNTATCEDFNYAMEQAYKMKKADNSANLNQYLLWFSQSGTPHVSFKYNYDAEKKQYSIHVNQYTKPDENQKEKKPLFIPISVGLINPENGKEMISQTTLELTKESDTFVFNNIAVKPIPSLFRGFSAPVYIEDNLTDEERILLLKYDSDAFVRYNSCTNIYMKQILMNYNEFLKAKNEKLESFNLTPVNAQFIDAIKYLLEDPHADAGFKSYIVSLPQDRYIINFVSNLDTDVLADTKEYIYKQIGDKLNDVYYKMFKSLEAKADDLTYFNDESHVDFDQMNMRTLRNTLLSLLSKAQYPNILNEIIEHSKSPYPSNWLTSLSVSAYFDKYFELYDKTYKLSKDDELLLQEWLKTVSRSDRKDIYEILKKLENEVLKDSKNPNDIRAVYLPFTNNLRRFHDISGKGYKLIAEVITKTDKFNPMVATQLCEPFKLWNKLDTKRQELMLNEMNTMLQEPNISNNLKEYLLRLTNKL
The test can be described thus: malaria alanyl aminopeptidase activity blockers – biochemical, fluorogenic H-Leu-NHMec substrate, 1536-well (AID 1445). Also on record: species or system Plasmodium falciparum 3D7, 3D7.

Activity calls are given as the source filed them.

In general, AC50 refers to the concentration giving half of the maximal activity seen. As usually defined, the EC50 is the concentration giving half of the maximal effect. The term IC50 denotes the concentration that gives 50% inhibition. By CC50 is commonly meant the concentration at which the toxic effect on the cells reaches its halfway point.

Chain of Large T antigen (P03070 whole entry): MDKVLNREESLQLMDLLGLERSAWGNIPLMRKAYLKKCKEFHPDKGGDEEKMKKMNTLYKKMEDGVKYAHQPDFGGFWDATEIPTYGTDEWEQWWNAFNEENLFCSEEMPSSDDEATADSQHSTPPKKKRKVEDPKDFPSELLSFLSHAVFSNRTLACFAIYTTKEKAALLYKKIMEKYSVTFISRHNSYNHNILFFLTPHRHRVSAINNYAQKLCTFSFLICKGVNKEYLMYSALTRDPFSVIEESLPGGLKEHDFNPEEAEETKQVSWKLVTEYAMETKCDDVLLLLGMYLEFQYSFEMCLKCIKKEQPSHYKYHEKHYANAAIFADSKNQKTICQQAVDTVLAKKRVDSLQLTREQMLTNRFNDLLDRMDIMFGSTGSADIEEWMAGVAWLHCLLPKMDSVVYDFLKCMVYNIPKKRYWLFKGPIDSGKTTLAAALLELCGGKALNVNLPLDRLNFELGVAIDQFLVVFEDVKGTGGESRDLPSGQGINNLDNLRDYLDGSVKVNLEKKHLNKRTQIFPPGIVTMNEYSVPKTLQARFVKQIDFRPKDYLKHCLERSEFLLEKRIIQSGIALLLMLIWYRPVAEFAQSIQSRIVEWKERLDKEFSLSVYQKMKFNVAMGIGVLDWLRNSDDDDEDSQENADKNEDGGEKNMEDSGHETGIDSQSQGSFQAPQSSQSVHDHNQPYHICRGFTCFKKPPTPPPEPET
Chain of Photoreceptor-specific nuclear receptor (Q9Y5X4 whole entry): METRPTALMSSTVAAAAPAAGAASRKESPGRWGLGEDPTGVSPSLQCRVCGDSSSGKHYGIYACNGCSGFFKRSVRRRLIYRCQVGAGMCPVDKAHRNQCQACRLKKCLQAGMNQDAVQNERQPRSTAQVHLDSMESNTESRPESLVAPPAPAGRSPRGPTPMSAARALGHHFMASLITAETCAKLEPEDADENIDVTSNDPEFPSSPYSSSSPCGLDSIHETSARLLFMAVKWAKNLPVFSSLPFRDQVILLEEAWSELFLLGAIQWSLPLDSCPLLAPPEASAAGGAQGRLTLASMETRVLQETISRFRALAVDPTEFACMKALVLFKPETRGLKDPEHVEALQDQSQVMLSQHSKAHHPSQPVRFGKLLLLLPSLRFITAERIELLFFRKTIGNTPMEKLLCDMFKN
Chain of Induced myeloid leukemia cell differentiation protein Mcl-1 (Q07820 whole entry): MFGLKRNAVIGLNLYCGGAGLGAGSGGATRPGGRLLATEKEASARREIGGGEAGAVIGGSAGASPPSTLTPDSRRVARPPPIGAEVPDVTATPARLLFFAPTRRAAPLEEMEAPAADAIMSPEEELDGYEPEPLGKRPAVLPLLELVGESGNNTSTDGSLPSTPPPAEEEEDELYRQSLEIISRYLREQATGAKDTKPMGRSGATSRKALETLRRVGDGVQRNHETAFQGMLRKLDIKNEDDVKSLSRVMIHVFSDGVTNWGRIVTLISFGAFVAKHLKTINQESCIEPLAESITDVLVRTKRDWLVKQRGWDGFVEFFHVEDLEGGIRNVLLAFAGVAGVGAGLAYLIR
Chain of Genome polyprotein (P29990 2492-3391 limits assumed): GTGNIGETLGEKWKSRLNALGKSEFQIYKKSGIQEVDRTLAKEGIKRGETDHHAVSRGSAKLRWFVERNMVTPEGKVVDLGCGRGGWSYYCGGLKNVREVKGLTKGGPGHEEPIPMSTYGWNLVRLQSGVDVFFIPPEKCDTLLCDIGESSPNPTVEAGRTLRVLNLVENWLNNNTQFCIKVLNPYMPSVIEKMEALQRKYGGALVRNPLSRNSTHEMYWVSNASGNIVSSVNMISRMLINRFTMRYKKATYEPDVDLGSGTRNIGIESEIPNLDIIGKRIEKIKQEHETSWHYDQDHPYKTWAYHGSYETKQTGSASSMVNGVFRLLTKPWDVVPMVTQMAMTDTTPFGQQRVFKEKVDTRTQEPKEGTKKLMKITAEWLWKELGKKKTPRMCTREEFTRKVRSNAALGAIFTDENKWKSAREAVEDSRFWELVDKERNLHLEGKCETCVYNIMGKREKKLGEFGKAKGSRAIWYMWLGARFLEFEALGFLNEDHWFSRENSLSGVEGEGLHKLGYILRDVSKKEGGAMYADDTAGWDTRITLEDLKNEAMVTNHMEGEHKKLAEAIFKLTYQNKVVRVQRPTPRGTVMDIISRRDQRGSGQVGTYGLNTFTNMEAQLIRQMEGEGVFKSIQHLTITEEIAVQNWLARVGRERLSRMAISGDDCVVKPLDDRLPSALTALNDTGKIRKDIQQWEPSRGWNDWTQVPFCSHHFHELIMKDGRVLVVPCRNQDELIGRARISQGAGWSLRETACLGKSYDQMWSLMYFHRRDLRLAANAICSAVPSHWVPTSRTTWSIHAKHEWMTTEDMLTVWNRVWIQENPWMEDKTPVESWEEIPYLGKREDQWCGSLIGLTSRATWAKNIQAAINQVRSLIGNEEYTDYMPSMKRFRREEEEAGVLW

For `CCCCCCCCCCOC(=O)Cn1c(COc2ccccc2)[n+](C)c2ccccc21`, the AC50 in the test with INS1 is 3.72 µM (active). The EC50 in test [1] is 1.6 µM (active).
As to `CCOC(=O)c1c(-c2ccc(-c3ccccc3)cc2)csc1NC(=O)CNCCN(C)C`, the AC50 in the test with HeLa is 8.39 µM (active). For the same molecule, the IC50 on Protein skinhead-1 was 12.5 µM (active); at Bcl-2-related protein A1, > 20 µM (inactive). Further, the EC50 in [2] is 9.16 µM (active).
In the case of `COc1cc(-c2nnc(SCc3cc(=O)oc4cc(O)c(O)cc34)o2)cc(OC)c1OC`, the IC50 at Large T antigen was 2.8 µM (active); at Genome polyprotein, > 100 µM (active); in test [4] it was > 119 µM (inactive); in [7], 3.77 µM (active). Moreover, the CC50 in test [3] is > 40 µM (active). The EC50 in test [5] was > 38 µM (not active); in test [6] it was > 150 µM (inactive).
Take `N#Cc1c(NC(=O)c2ccc(Br)o2)n(-c2ccccc2)c2nc3ccccc3nc12`: the IC50 was > 39.8 µM (not active) in test [8], 4.55 µM (active) in test [9] and 22.9 µM (active) at Aminopeptidase N.
